Assay results reported in ChEMBL document CHEMBL4342426, “Structure-activity relationship of 4-azaindole-2-piperidine derivatives as agents against Trypanosoma cruzi” (Bioorg Med Chem Lett, 2020).

How the values were obtained:
[1] = physchem; settings: buffer, pH 7.4
Description: Lipophilicity, logD of compound at pH 7.4 by HPLC analysis

[2] = system: Trypanosoma brucei rhodesiense; experiment: microbe, parasite or virus in culture; settings: STIB900, 72 h
Description: Antiprotozoal activity against Trypanosoma brucei rhodesiense STIB900 trypomastigotes incubated for 72 hrs by resazurin dye based fluorimetric analysis

[3] = in vitro; settings: mouse, peritoneal macrophages
Description: (§1) Cytotoxicity against mouse peritoneal Macrophage cells assessed as reduction in cell viability incubated for 3 days by fluorimetry

[4] = system: Macrophage; experiment: cells; settings: Mus musculus, 72 h
Description: as §1

[5] = in vitro; settings: mouse, liver microsomes
Description: Metabolic stability in mouse liver microsomes assessed as fraction unbound at 0.5 uM incubated for 30 mins by LC-MS/MS analysis

[6] = in vitro; settings: human, MRC5 SV2 cells
Description: (§2) Cytotoxicity against human MRC5 SV2 cells assessed as reduction in cell viability incubated for 3 days by fluorimetry

[7] = system: Trypanosoma brucei; experiment: microbe, parasite or virus in culture; settings: Squib 427, 72 h
Description: Antitrypanosomal activity against Trypanosoma brucei Squib 427 assessed as reduction in parasite growth incubated for 72 hrs by resazurin dye based fluorimetric analysis

[8] = in vitro; settings: mouse, liver microsomes; remark: listed apart in the source
Description: Metabolic stability in mouse liver microsomes assessed as intrinsic clearance at 0.5 uM incubated for 30 mins by LC-MS/MS analysis

[9] = cells; settings: Homo sapiens, MRC-5 SV2, 72 h
Description: as §2

[10] = in vitro; settings: human, liver microsomes
Description: Metabolic stability in human liver microsomes assessed as intrinsic clearance at 0.5 uM incubated for 30 mins by LC-MS/MS analysis

[11] = in vitro; settings: PAMPA
Description: Effective permeability of compound by PAMPA assay

[12] = system: Trypanosoma cruzi; experiment: microbe, parasite or virus in culture; settings: Tulahuen CL2, MRC-5 SV2, 168 h
Description: Antitrypanosomal activity against Trypanosoma cruzi Tulahuen CL2 amastigotes infected in human MRC5 SV2 cells incubated for 7 days by chlorophenol red beta-D-galactopyranoside substrate based spectrophotometric assay

[13] = system: Leishmania infantum; experiment: microbe, parasite or virus in culture; settings: for IC50: MHOM/MA(BE)/67/ITMAP263, 120 h; for IC90: MHOM/MA(BE)/67/ITMAP263, in Mus musculus, 120 h
Description: Antileishmanial activity against amastigote stage of Leishmania infantum MHOM/MA(BE)/67/ITMAP263 infected in mouse peritoneal macrophage assessed as parasite growth inhibition incubated for 5 days by Giemsa staining based assay

[14] = in vitro; settings: human, MRC5 SV2 cells; remark: listed apart in the source
Description: Selectivity index, ratio of IC50 for human MRC5 SV2 cells to IC50 for Trypanosoma cruzi Tulahuen CL2 amastigotes infected in human MRC5 SV2 cells

| logD [1] | IC50 [2] [µM] | IC90 [2] [µM] | IC90 at 72 h [3] [µM] | fraction unbound at 0.5 h, 0.5 µM [5] | IC90 at 72 h [6] [µM] | IC50 [7] [µM] | IC90 [7] [µM] | CLint scaled at 0.5 h, 0.5 µM [8] [mL/min/kg] | microsomal CLint at 0.5 h, 0.5 µM [8] [µL/min/mg] | CLint scaled at 0.5 h, 0.5 µM [10] [mL/min/kg] | microsomal CLint at 0.5 h, 0.5 µM [10] [µL/min/mg] | Papp [11] [×10⁻⁶ cm/s] | IC50 [13] [µM] | IC90 [13] [µM] | SMILES | IC50 [4] [µM] | IC50 [9] [µM] | IC50 [12] [µM] | IC90 [12] [µM] | selectivity ratio [14] |
| --- | --- | --- | --- | --- | --- | --- | --- | --- | --- | --- | --- | --- | --- | --- | --- | --- | --- | --- | --- | --- |
| 3.39 | 19.6 | 30.6 | 64 | 0.815 | 64 | 64 | 64 | 593 | 151 | 35 | 26.4 | 14.4 | 64 | 64 | COc1ccc2[nH]c(C3CCCN(C(=O)c4ccc(F)cc4)C3)cc2n1 (stereo not given) | 64 | 64 | 64 | 64 |  |
| 1.71 | 64 | 64 | 64 | 0.805 | 64 | 64 | 64 | 338 | 127 | < 31.7 | < 23 | 2.75 | 64 | 64 | O=C(c1ccccc1)N1CCCC(c2cn3cccnc3n2)C1 (stereo not given) | 64 | 64 | 64 | 64 |  |
| 2.62 | 43.9 | 64 | 64 |  | 64 | 64 | 64 | 5590 | 1230 | 68.7 | 44.6 | 1.58 | 64 | 64 | O=C(c1ccc(F)cc1)N1CCC(c2cc3ncccc3[nH]2)C1 (stereo not given) | 64 | 64 | 8.99 | 64 | 7.15 |
| 3.06 | 39.4 | 64 | 64 |  | 64 | 64 | 64 | ≥ 623 | 195 | ≥ 38 | 35.2 | 0.907 | 39.1 | 58.5 | O=C(c1ccc(F)cc1)N1CC=C(c2cc3ncccc3[nH]2)CC1 | 64 | 64 | 2.54 | 64 | 25.1 |
| 2.86 | 64 | 64 | 64 |  | 64 | 64 | 64 | 6690 | 1750 | 167 | 129 | 3.09 | 64 | 64 | Cc1ccoc1C(=O)N1CCCC(c2cc3ncccc3[nH]2)C1 (stereo not given) | 64 | 64 | 21.3 | 55.5 | 3 |
|  | 55.4 | 64 | 64 |  | 64 | 64 | 64 |  |  |  |  |  | 64 | 64 | O=C(OCc1ccccc1)N1CCCC(c2cn3cccnc3n2)C1 (stereo not given) | 64 | 64 | 34.5 | 64 | 1.88 |
| 2.37 | 64 | 64 | 64 |  | 64 | 64 | 64 |  |  | 51.5 | < 23 | 0.379 | 64 | 64 | N#Cc1ccc(C(=O)N2CCCC(c3cc4ncccc4[nH]3)C2)cc1 (stereo not given) | 64 | 64 | 25.6 | 59 | 2.49 |
|  | 25.2 | 32 | 32 |  | 32 | 32 | 32 | 1830 |  | 32.7 |  |  | 32 | 32 | O=C(c1cc(C2CC2)on1)N1CCCC(c2cc3ncccc3[nH]2)C1 (stereo not given) | 32 | 32 | 3.92 | 7.5 | 8.15 |
| 4.04 | 64 | 64 | 64 |  | 64 | 64 | 64 | > 11300 | 3540 | > 200 | 185 | 22.4 | 64 | 64 | CC(C)(C)OC(=O)N1CCCC(c2cn3nc(Cl)ccc3n2)C1 (stereo not given) | 64 | 64 | 29.5 | 60.3 | 2.15 |
|  | 32 | 32 | 32 |  | 32 | 32 | 32 | 1000 |  | 1620 |  |  | 32 | 32 | COc1ccc2cc(C(=O)N3CCCC(c4cc5ncccc5[nH]4)C3)[nH]c2c1 (stereo not given) | 32 | 32 | 4.03 | 7.62 | 7.95 |
| 2.61 | 64 | 64 | 64 |  | 64 | 64 | 64 | 564 | 137 | < 32.2 | < 23 | 1.58 | 64 | 64 | COc1ccc(C(=O)N2CCCC(c3cc4ncccc4[nH]3)C2)cc1OC (stereo not given) | 64 | 64 | 8.96 | 64 | 7.15 |
| 3.4 | 64 | 64 | 64 | 0.518 | 64 | 64 | 64 | 24700 | 4010 |  |  | 40.4 | 64 | 64 | O=C(c1ccccc1)N1CCN(c2nc3ccccc3s2)CC1 | 64 | 64 | 64 | 64 |  |
|  | 31 | 32 | 32 |  | 32 | 32 | 32 | 2600 |  | 110 |  |  | 32 | 32 | COc1cccc(C(=O)N2CCCC(c3cc4ncccc4[nH]3)C2)c1OC (stereo not given) | 32 | 32 | 4.03 | 7.52 | 8 |
